Values after ≈ are worked out from the molar mass of the structure shown. “Also recorded” adds a separate entry of the source.
Legend:
[1] = test system: Morganella morganii (ceftazidime R); test: NCCLS agar dilution MIC; assay type: cell-based; parameters: unit not given beside the values; conditions: n=2
[2] = test system: E. coli (TEM 10 transformant); test: NCCLS agar dilution MIC; assay type: cell-based; conditions: Escherichia coli
[3] = test system: Citrobacter freundii (ceftazidime R); test: NCCLS agar dilution MIC; assay type: cell-based; conditions: n=6
[4] = test system: E. coli (OXA 5 transformant); test: NCCLS agar dilution MIC; assay type: cell-based; conditions: Escherichia coli
[5] = test system: P. aeruginosa strains from CF sputa; test: O-serotyping; assay type: cell-based, Pseudomonas aeruginosa; conditions: exposure to 1/2–1/16 MIC (ceftazidime) or 1/2–1/8 MIC (ciprofloxacin)
[6] = test system: Escherichia coli; test: Vitek 2 susceptibility, urine isolates of children; assay type: cell-based
[7] = test system: P. aeruginosa; assay type: cell-based, Pseudomonas aeruginosa
[8] = test system: E. coli; test: E-test susceptibility; assay type: cell-based, Escherichia coli
[9] = test system: Pseudomonas putida clinical isolates; test: Agar dilution MIC; assay type: cell-based
[10] = test system: Acinetobacter; test: Disk diffusion; assay type: cell-based; conditions: 37 isolates selected as resistant to beta-lactams
[11] = test system: Enterobacteriaceae; test: SMART 2003 Europe, microdilution; assay type: cell-based; conditions: 1948 isolates
[12] = test system: E. coli (TEM 9 transformant); test: NCCLS agar dilution MIC; assay type: cell-based; conditions: Escherichia coli, n=1 per table line (three lines)
[13] = test system: Pseudomonas aeruginosa; test: MIC, strains from cystic fibrosis patients; conditions: by MIC
[14] = test system: inducible Enterobacteriaceae; test: SMART 2003, intraabdominal isolates; assay type: cell-based
[15] = test system: K. oxytoca; test: E-test susceptibility; assay type: cell-based, Klebsiella oxytoca
[16] = test system: Escherichia coli (ECO); test: Broth microdilution; assay type: cell-based; conditions: 2001
[17] = test system: K. pneumoniae; test: E-test susceptibility; assay type: cell-based, Klebsiella pneumoniae
[18] = test system: Klebsiella; test: SMART 2003 Europe, microdilution; assay type: cell-based, Klebsiella spp.; conditions: 341 isolates
[19] = test system: Enterobacter spp; test: E-test susceptibility; assay type: cell-based
[20] = test system: E. coli; test: SMART 2003 Europe, microdilution; assay type: cell-based, Escherichia coli; conditions: 1106 isolates

For C[C@H]1[C@H](NC(=O)/C(=N\OC(C)(C)C(=O)O)c2csc(N)n2)C(=O)N1S(=O)(=O)O [aztreonam], the “MIC (two isolates)” value [1] was 2/8, the MIC [2] was 32 µg/mL (≈ 73.5 µM) and the MIC range [3] was 4 to 64 µg/mL. The MIC [4] was 16 µg/mL (≈ 36.7 µM).

In the case of CC(C)(O/N=C(\C(=O)N[C@@H]1C(=O)N2C(C(=O)[O-])=C(C[n+]3ccccc3)CS[C@H]12)c1csc(N)n1)C(=O)O [ceftazidime], the “change of agglutination type of nine monoagglutinable strains” value [5] is reported as “seven strains have become auto-agglutinable; also recorded: two strains have become polyagglutinable”, the susceptibility rate ([6]; paediatric surgical unit (PSU)) is reported as 39% and the susceptibility rate ([6]; paediatric units (PU)) is reported as 95%. It also gave a resistant [7] of 32%, a Susceptible isolates ([8]; ICU, SRGA breakpoints, tigecycline tentative S ≤2 μg/ml) of 98% and a Susceptible isolates ([8]; non ICU) of 99%. The “MIC (two isolates)” value [1] was 16/64, the MIC [9] was greater than 128 µg/mL and the MIC [2] was greater than 128 µg/mL. The resistant isolates [10] was 56.8%, the per cent susceptible [11] was 92% and the MIC [12] was greater than 128 µg/mL. For the same compound, the Susceptible isolates [13] was 84%, the “% susceptible” value ([14]; A/P (N = 200)) was 59% and the “% susceptible” value ([14]; EU (N = 354)) was 75%. The “% susceptible” value ([14]; LA (N=113)) was 69%, the “% susceptible” value ([14]; NA (N = 163)) was 71% and the Susceptible isolates ([15]; ICU) was 100/100%. The Susceptible isolates ([15]; non ICU) was 100/100%, the susceptible ([16]; NAL-resistant isolates) was 93.3% and the susceptible ([16]; NAL-susceptible isolates) was 99.0%. It also gave a Susceptible isolates ([17]; ICU) of 98%, a Susceptible isolates ([17]; non ICU) of 100% and a per cent susceptible [18] of 94%. The Susceptible isolates ([19]; ICU) was 75%, the Susceptible isolates ([19]; non ICU) was 89% and the per cent susceptible [20] was 96%. The MIC [4] was 64 µg/mL (≈ 117 µM).
